Data as given in US20100279990A1, “ANTIPROLIFERATIVE COMPOUNDS, COMPOSITIONS AND METHODS OF USE” (RAMOT AT TEL-AVIV UNIVERSITY LTD., priority 2006, published 2010).
Read-outs that look alike come from different tables or passages of the source.

Assays:
[1] = tested on: human Jurkat lymphoma cells; experiment: Viability of human Jurkat lymphoma cells, alamar blue staining; assay type: cell-based; conditions: for IC50: Homo sapiens, 48 hr, alamar blue
Experimental: This example illustrates cell viability data derived from the incubation of a human. […] The results are depicted in FIGS. 1A, 1B, and 1C. […] See Nociari et al., J. Immunol. […] Each point represents the mean+/−SE of 4 determinations.

[2] = tested on: BXF 1218L; experiment: Monolayer Assay, PI: BXF 1218L (Bladder); assay type: cell-based, human
Text: (§1) This example illustrates cell proliferation data in the form of IC50, IC70 and IC90 values obtained by exposure of human cancer cell-lines to compound (Ia). […].

[3] = tested on: human tumor cell lines; experiment: In vitro antitumor activity in panel of 37 human tumor cell lines (Monolayer Assay, PI), summary; assay type: cell-based
[4] = tested on: MEXF 462NL; experiment: Monolayer Assay, PI: MEXF 462NL (Melanoma); assay type: cell-based, human
Text: as §1

[5] = tested on: resistant colon carcinoma LS1034 cell-line; experiment: Viability of resistant colon carcinoma LS1034 cell-line (FIG. 7A); assay type: cell-based; conditions: LS-1034, read-out: IC50, inhibition of cell viability
Text: This example illustrates cell viability data obtained by separately administering different concentrations of compound (Ia), sertraline, paroxetine, and doxorubicin to a […] resistant colon carcinoma LS1034 cell-line. The results are depicted in FIG. 7A.

[6] = tested on: LS1034 human colon MDR carcinoma cells; experiment: Viability of LS1034 human colon MDR carcinoma cells (FIG. 7B); assay type: cell-based
Text: This example illustrates cell viability obtained by separately administering different concentrations of compound (Ia), sertraline, doxorubicin, cisplatin, fluorouracil (5-FU), methotrexate (MTX), and vincristin to LS1034 human colon MDR carcinoma cells. The results are depicted in FIG. 7B.

[7] = tested on: human colon carcinoma cells (HT29)
[8] = tested on: OVXF OVCAR3; experiment: Monolayer Assay, PI: OVXF OVCAR3 (Ovarian Cancer); assay type: cell-based, human
Text: as §1

[9] = tested on: CXF HCT116; experiment: Monolayer Assay, PI: CXF HCT116 (Colorectal); assay type: cell-based, human
Text: as §1

[10] = tested on: MEXF 514L; experiment: Monolayer Assay, PI: MEXF 514L (Melanoma); assay type: cell-based, human
Text: as §1

[11] = tested on: LXF 529L; experiment: Monolayer Assay, PI: LXF 529L (Lung); assay type: cell-based, human
Text: as §1

[12] = tested on: male Balb/C mice; experiment: Acute toxicity in male Balb/C mice, ip; assay type: in vivo
Experimental: This example illustrates acute toxicity data derived from the treatment of male Balb/C mice with different concentrations of compound (Ia). The results are depicted in FIG. 11. Compound (Ia) was administered ip to groups of mice at doses of 10, 20 and 30 mg/kg. Sertraline was also administered to one group at 30 mg/kg. Each group of mice included five animals.
Body weight was determined up to 12 days after drug administration.

[13] = mean over human cancer cell-lines

CN[C@H]1CC[C@@H](c2ccc(Cl)c(Cl)c2)c2ccc(C#CCCCO)cc21 [compound (Ia), (1S-cis)-4-(3,4-dichlorophenyl)-7-(5-hydroxy-1-pentyn-1-yl)-1,2,3,4-tetrahydro-N-methyl-1-naphthalenamine hydroiodide]
IC50 ([1]; FIG. 1A, read-out: IC50, anti-proliferative activity): 12.5 µM | IC50 ([1]; FIG. 1B, read-out: IC50, decrease in cell viability): 16.2 µM | potency compared with sertraline ([1]; lower concentrations (1-10 μM), FIG. 1B): higher potency than sertraline | Test/Control (%) ([2]; 2.3 μg/ml): 97% | Test/Control activity class ([2]; 2.3 μg/ml): − (− (T/C = 50)) | Test/Control (%) ([2]; 7.5 μg/ml): 92% | Test/Control activity class ([2]; 7.5 μg/ml): − (− (T/C = 50)) | Test/Control (%) ([2]; 23. μg/ml): 4% | Test/Control activity class ([2]; 23. μg/ml): +++ (+++ (T/C < 10)) | Test/Control (%) ([2]; 75. μg/ml): 5% | Test/Control activity class ([2]; 75. μg/ml): +++ (+++ (T/C < 10)) | Test/Control (%) ([2]; .75 μg/ml): 101% | Test/Control activity class ([2]; .75 μg/ml): − (− (T/C = 50)) | active*/total cell lines ([3]; 2.3 μg/ml): 0/37 | active*/total cell lines, percent ([3]; 2.3 μg/ml): 0% | active*/total cell lines ([3]; 7.5 μg/ml): 26/37 | active*/total cell lines, percent ([3]; 7.5 μg/ml (text: concentration of 7.5), hydroiodide): 70% | active*/total cell lines ([3]; 23. μg/ml): 37/37 | active*/total cell lines, percent ([3]; 23. μg/ml): 100% | active*/total cell lines ([3]; 75. μg/ml): 37/37 | active*/total cell lines, percent ([3]; 75. μg/ml): 100% | active*/total cell lines ([3]; .75 μg/ml): 0/37 | active*/total cell lines, percent ([3]; .75 μg/ml): 0% | IC50 [3, 13]: 4.9 µM | mean IC70 [3, 13]: 6.9 µM | Test/Control (%) ([4]; 2.3 μg/ml): 107% | Test/Control activity class ([4]; 2.3 μg/ml): − (− (T/C = 50)) | Test/Control (%) ([4]; 7.5 μg/ml): 20% | Test/Control activity class ([4]; 7.5 μg/ml): ++ (++ (10 <= T/C < 30)) | Test/Control (%) ([4]; 23. μg/ml): 2% | Test/Control activity class ([4]; 23. μg/ml): +++ (+++ (T/C < 10)) | Test/Control (%) ([4]; 75. μg/ml): 2% | Test/Control activity class ([4]; 75. μg/ml): +++ (+++ (T/C < 10)) | Test/Control (%) ([4]; .75 μg/ml): 102% | Test/Control activity class ([4]; .75 μg/ml): − (− (T/C = 50)) | IC50 [5]: 11.3 µM | effect on resistant cancer cells [6]: has the ability to suppress resistant cancer cells | potency compared with paroxetine ([7]; 10-30 μM, FIG. 2A): higher potency than paroxetine | potency compared with paroxetine and fluoxetine ([7]; equimolar doses, FIG. 2B): significantly more potent than paroxetine and fluoxetine | Test/Control (%) ([8]; 2.3 μg/ml): 103% | Test/Control activity class ([8]; 2.3 μg/ml): − (− (T/C = 50)) | Test/Control (%) ([8]; 7.5 μg/ml): 78% | Test/Control activity class ([8]; 7.5 μg/ml): − (− (T/C = 50)) | Test/Control (%) ([8]; 23. μg/ml): 4% | Test/Control activity class ([8]; 23. μg/ml): +++ (+++ (T/C < 10)) | Test/Control (%) ([8]; 75. μg/ml): 5% | Test/Control activity class ([8]; 75. μg/ml): +++ (+++ (T/C < 10)) | Test/Control (%) ([8]; .75 μg/ml): 109% | Test/Control activity class ([8]; .75 μg/ml): − (− (T/C = 50)) | Test/Control (%) ([9]; 2.3 μg/ml): 93% | Test/Control activity class ([9]; 2.3 μg/ml): − (− (T/C = 50)) | Test/Control (%) ([9]; 7.5 μg/ml): 4% | Test/Control activity class ([9]; 7.5 μg/ml): +++ (+++ (T/C < 10)) | Test/Control (%) ([9]; 23. μg/ml): 2% | Test/Control activity class ([9]; 23. μg/ml): +++ (+++ (T/C < 10)) | Test/Control (%) ([9]; 75. μg/ml): 1% | Test/Control activity class ([9]; 75. μg/ml): +++ (+++ (T/C < 10)) | Test/Control (%) ([9]; .75 μg/ml): 99% | Test/Control activity class ([9]; .75 μg/ml): − (− (T/C = 50)) | Test/Control (%) ([10]; 2.3 μg/ml): 90% | Test/Control activity class ([10]; 2.3 μg/ml): − (− (T/C = 50)) | Test/Control (%) ([10]; 7.5 μg/ml): 3% | Test/Control activity class ([10]; 7.5 μg/ml): +++ (+++ (T/C < 10)) | Test/Control (%) ([10]; 23. μg/ml): 2% | Test/Control activity class ([10]; 23. μg/ml): +++ (+++ (T/C < 10)) | Test/Control (%) ([10]; 75. μg/ml): 3% | Test/Control activity class ([10]; 75. μg/ml): +++ (+++ (T/C < 10)) | Test/Control (%) ([10]; .75 μg/ml): 108% | Test/Control activity class ([10]; .75 μg/ml): − (− (T/C = 50)) | Test/Control (%) ([11]; 2.3 μg/ml): 97% | Test/Control activity class ([11]; 2.3 μg/ml): − (− (T/C = 50)) | Test/Control (%) ([11]; 7.5 μg/ml): 17% | Test/Control activity class ([11]; 7.5 μg/ml): ++ (++ (10 <= T/C < 30)) | Test/Control (%) ([11]; 23. μg/ml): 3% | Test/Control activity class ([11]; 23. μg/ml): +++ (+++ (T/C < 10)) | Test/Control (%) ([11]; 75. μg/ml): 5% | Test/Control activity class ([11]; 75. μg/ml): +++ (+++ (T/C < 10)) | Test/Control (%) ([11]; .75 μg/ml): 93% | Test/Control activity class ([11]; .75 μg/ml): − (− (T/C = 50)) | behavioral changes ([12]; ip 10, 20 and 30 mg/kg, observed 4 h and after 24 h): none of the animals showed any observed change in behavior | changes in food intake or body weight ([12]; ip 10, 20 and 30 mg/kg, over 12 days): none of the animals exhibited changes in food intake or body weight | tolerability of acute ip administration ([12]; ip, up to 30 mg/kg): well tolerated
